Laboratory results: ChEMBL document CHEMBL3132856, “Novel pyrazolo[1,5-a]pyridines as PI3K inhibitors: variation of the central linker group” (Medchemcomm, 2014)

Organism: Homo sapiens
Experiment: Selectivity ratio of IC50 for PI3Kdelta (unknown origin) to IC50 for PI3Kalpha (unknown origin)

Ratio IC50	Compound
5	CN(C)CCN(C)c1ccc(C#N)cc1[S+]([O-])c1nc(-c2cnn3ccc(Br)cc23)cs1 (centres undefined)

Organism: Homo sapiens
Experiment: Selectivity ratio of IC50 for PI3Kalpha (unknown origin) to IC50 for PI3Kdelta (unknown origin)

Ratio IC50	Compound
9	N#Cc1cc(S(=O)(=O)c2nc(-c3cnn4ccc(Br)cc34)cs2)ccc1NCCN1CCOCC1
4	CN(C)CCN(C)c1ccc(S(=O)(=O)c2nc(-c3cnn4ccc(Br)cc34)cs2)cc1C#N
16	CN(C)CCN(C)c1ccc(C#N)cc1[S+]([O-])c1nc(-c2cnn3ccc(Br)cc23)cs1 (centres undefined)

Organism: Homo sapiens
Experiment: Selectivity ratio of IC50 for PI3Kbeta (unknown origin) to IC50 for PI3Kalpha (unknown origin)

Ratio IC50	Compound
< 10	O=[N+]([O-])c1cccc([S+]([O-])c2nc(-c3cnn4ccc(Br)cc34)cs2)c1 (centres undefined)
< 10	O=[N+]([O-])c1cccc(S(=O)(=O)c2nc(-c3cnn4ccc(Br)cc34)cs2)c1

These compounds were tested against T1, Phosphatidylinositol 4,5-bisphosphate 3-kinase catalytic subunit delta isoform (Homo sapiens, UniProt O00329) (assay: Inhibition of PI3Kdelta (unknown origin)).
T1 sequence (O00329 whole entry): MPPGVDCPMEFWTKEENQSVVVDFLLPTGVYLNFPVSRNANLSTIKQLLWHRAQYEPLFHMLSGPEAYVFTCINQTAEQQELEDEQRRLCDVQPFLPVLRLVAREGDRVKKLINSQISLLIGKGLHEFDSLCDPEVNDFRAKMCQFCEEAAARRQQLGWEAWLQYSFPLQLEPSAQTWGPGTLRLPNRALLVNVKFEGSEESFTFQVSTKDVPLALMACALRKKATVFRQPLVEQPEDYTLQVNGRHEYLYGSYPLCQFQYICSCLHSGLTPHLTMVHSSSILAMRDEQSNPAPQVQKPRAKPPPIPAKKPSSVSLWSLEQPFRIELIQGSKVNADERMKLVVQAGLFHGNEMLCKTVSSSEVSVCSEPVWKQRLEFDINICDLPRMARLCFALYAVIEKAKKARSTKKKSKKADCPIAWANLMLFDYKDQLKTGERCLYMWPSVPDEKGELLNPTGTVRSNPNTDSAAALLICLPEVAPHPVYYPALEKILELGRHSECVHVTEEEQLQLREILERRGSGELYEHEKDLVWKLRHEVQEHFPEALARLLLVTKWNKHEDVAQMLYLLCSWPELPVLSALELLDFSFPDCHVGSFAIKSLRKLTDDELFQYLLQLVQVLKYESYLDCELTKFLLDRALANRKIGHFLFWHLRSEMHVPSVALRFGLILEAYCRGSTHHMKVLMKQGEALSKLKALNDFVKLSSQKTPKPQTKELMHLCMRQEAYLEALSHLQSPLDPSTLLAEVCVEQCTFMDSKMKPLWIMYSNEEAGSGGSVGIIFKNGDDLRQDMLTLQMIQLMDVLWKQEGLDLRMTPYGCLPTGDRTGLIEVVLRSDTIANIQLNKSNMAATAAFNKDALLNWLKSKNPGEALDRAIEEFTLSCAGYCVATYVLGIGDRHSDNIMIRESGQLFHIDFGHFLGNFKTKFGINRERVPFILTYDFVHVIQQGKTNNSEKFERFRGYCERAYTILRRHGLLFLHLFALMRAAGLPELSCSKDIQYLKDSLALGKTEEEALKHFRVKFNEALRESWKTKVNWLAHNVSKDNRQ

IC50 [nM]	Compound
> 1000	Cc1ccc([N+](=O)[O-])cc1C(=O)NC1CN(Cc2cnn3ccc(C#N)cc23)C1
> 1000	Cc1ccc([N+](=O)[O-])cc1S(=O)(=O)NC1CN(Cc2cnn3ccc(C#N)cc23)C1
> 1000	Cc1ccc([N+](=O)[O-])cc1S(=O)(=O)Nc1nc(-c2cnn3ccc(Br)cc23)cs1
240	N#Cc1cc(S(=O)(=O)c2nc(-c3cnn4ccc(Br)cc34)cs2)ccc1NCCN1CCOCC1
320	O=[N+]([O-])c1cccc([S+]([O-])c2nc(-c3cnn4ccc(Br)cc34)cs2)c1 (centres undefined)
> 1000	Cc1ccc([N+](=O)[O-])cc1CSc1nc(-c2cnn3ccc(Br)cc23)cs1
640	CN(C)CCN(C)c1ccc(S(=O)(=O)c2nc(-c3cnn4ccc(Br)cc34)cs2)cc1C#N
> 1000	Cc1ccc([N+](=O)[O-])cc1S(=O)(=O)N[C@@H]1CCCN(Cc2cnn3ccc(C#N)cc23)C1
> 1000	Cc1ccc([N+](=O)[O-])cc1C(=O)N1CCN(Cc2cnn3ccc(C#N)cc23)CC1
> 1000	Cc1ccc([N+](=O)[O-])cc1S(=O)(=O)N1CCCN(Cc2cnn3ccc(C#N)cc23)CC1
> 1000	Cc1ccc([N+](=O)[O-])cc1Nc1nc(-c2cnn3ccc(Br)cc23)cs1
> 1000	O=[N+]([O-])c1cccc(Sc2nc(-c3cnn4ccc(Br)cc34)cs2)c1
> 1000	Cc1ccc([N+](=O)[O-])cc1C(=O)N[C@H]1CCN(Cc2cnn3ccc(C#N)cc23)C1
> 1000	Cc1ccc([N+](=O)[O-])cc1C(=O)N1CCC(c2cnn3ccc(Br)cc23)CC1
150	N#Cc1cc(S(=O)(=O)c2nc(-c3cnn4ccc(Br)cc34)cs2)ccc1F
90	Cc1ccc([N+](=O)[O-])cc1S(=O)(=O)Cc1nc(-c2cnn3ccc(Br)cc23)cs1
> 1000	Cc1ccccc1[S+]([O-])c1nc(-c2cnn3ccc(Br)cc23)cs1 (centres undefined)
> 1000	Cc1ccc([N+](=O)[O-])cc1-c1nc(-c2cnn3ccc(Br)cc23)cs1
250	CN(C)CCN(C)c1ccc(C#N)cc1[S+]([O-])c1nc(-c2cnn3ccc(Br)cc23)cs1 (centres undefined)

These compounds were tested against Phosphatidylinositol 4,5-bisphosphate 3-kinase catalytic subunit beta isoform (Homo sapiens, UniProt P42338) (assay: Inhibition of PI3Kbeta (unknown origin)).
Sequence of Phosphatidylinositol 4,5-bisphosphate 3-kinase catalytic subunit beta isoform (P42338 whole entry, canonical isoform): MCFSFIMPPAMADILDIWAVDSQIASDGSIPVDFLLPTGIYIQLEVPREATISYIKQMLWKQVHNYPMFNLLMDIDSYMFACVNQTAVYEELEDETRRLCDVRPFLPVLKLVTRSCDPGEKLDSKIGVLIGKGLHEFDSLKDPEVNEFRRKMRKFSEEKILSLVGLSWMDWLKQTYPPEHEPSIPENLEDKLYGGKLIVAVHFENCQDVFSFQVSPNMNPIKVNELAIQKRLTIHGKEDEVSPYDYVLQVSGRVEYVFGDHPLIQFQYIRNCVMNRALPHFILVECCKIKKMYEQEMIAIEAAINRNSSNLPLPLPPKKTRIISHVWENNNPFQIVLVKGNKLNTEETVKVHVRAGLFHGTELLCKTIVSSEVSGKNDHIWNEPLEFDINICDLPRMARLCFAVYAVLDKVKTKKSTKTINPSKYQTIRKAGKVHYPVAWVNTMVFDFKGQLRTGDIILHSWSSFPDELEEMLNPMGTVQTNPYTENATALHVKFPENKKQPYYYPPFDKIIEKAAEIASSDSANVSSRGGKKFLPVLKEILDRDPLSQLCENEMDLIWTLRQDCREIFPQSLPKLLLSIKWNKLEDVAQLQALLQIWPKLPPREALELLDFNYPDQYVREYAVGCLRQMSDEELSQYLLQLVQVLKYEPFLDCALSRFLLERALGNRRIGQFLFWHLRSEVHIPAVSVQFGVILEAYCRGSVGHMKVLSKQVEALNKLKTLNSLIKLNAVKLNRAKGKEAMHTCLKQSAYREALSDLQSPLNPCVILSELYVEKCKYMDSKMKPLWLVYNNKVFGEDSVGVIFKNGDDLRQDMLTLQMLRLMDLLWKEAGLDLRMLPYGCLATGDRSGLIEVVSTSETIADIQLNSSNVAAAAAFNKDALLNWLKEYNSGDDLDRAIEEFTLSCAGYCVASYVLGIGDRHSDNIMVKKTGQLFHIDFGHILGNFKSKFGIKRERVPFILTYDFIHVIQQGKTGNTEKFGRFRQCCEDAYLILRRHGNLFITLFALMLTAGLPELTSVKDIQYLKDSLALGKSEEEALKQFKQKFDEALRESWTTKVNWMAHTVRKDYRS

IC50 [nM]	Compound
> 1000	Cc1ccc([N+](=O)[O-])cc1C(=O)NC1CN(Cc2cnn3ccc(C#N)cc23)C1
> 1000	Cc1ccc([N+](=O)[O-])cc1S(=O)(=O)NC1CN(Cc2cnn3ccc(C#N)cc23)C1
> 1000	Cc1ccc([N+](=O)[O-])cc1S(=O)(=O)Nc1nc(-c2cnn3ccc(Br)cc23)cs1
> 1000	N#Cc1cc(S(=O)(=O)c2nc(-c3cnn4ccc(Br)cc34)cs2)ccc1NCCN1CCOCC1
4420	O=[N+]([O-])c1cccc([S+]([O-])c2nc(-c3cnn4ccc(Br)cc34)cs2)c1 (centres undefined)
> 1000	Cc1ccc([N+](=O)[O-])cc1CSc1nc(-c2cnn3ccc(Br)cc23)cs1
> 1000	CN(C)CCN(C)c1ccc(S(=O)(=O)c2nc(-c3cnn4ccc(Br)cc34)cs2)cc1C#N
> 1000	Cc1ccc([N+](=O)[O-])cc1S(=O)(=O)N[C@@H]1CCCN(Cc2cnn3ccc(C#N)cc23)C1
> 1000	Cc1ccc([N+](=O)[O-])cc1C(=O)N1CCN(Cc2cnn3ccc(C#N)cc23)CC1
> 1000	Cc1ccc([N+](=O)[O-])cc1S(=O)(=O)N1CCCN(Cc2cnn3ccc(C#N)cc23)CC1
> 1000	Cc1ccc([N+](=O)[O-])cc1Nc1nc(-c2cnn3ccc(Br)cc23)cs1
> 1000	O=[N+]([O-])c1cccc(Sc2nc(-c3cnn4ccc(Br)cc34)cs2)c1
> 1000	Cc1ccc([N+](=O)[O-])cc1C(=O)N[C@H]1CCN(Cc2cnn3ccc(C#N)cc23)C1
> 1000	Cc1ccc([N+](=O)[O-])cc1C(=O)N1CCC(c2cnn3ccc(Br)cc23)CC1
> 1000	N#Cc1cc(S(=O)(=O)c2nc(-c3cnn4ccc(Br)cc34)cs2)ccc1F
140	Cc1ccc([N+](=O)[O-])cc1S(=O)(=O)Cc1nc(-c2cnn3ccc(Br)cc23)cs1
> 1000	Cc1ccccc1[S+]([O-])c1nc(-c2cnn3ccc(Br)cc23)cs1 (centres undefined)
> 1000	Cc1ccc([N+](=O)[O-])cc1-c1nc(-c2cnn3ccc(Br)cc23)cs1
4340	CN(C)CCN(C)c1ccc(C#N)cc1[S+]([O-])c1nc(-c2cnn3ccc(Br)cc23)cs1 (centres undefined)

These compounds were tested against Phosphatidylinositol 4,5-bisphosphate 3-kinase catalytic subunit alpha isoform (Homo sapiens, UniProt P42336) (assay: Inhibition of PI3Kalpha (unknown origin)).
Sequence of Phosphatidylinositol 4,5-bisphosphate 3-kinase catalytic subunit alpha isoform (P42336 whole entry, canonical isoform): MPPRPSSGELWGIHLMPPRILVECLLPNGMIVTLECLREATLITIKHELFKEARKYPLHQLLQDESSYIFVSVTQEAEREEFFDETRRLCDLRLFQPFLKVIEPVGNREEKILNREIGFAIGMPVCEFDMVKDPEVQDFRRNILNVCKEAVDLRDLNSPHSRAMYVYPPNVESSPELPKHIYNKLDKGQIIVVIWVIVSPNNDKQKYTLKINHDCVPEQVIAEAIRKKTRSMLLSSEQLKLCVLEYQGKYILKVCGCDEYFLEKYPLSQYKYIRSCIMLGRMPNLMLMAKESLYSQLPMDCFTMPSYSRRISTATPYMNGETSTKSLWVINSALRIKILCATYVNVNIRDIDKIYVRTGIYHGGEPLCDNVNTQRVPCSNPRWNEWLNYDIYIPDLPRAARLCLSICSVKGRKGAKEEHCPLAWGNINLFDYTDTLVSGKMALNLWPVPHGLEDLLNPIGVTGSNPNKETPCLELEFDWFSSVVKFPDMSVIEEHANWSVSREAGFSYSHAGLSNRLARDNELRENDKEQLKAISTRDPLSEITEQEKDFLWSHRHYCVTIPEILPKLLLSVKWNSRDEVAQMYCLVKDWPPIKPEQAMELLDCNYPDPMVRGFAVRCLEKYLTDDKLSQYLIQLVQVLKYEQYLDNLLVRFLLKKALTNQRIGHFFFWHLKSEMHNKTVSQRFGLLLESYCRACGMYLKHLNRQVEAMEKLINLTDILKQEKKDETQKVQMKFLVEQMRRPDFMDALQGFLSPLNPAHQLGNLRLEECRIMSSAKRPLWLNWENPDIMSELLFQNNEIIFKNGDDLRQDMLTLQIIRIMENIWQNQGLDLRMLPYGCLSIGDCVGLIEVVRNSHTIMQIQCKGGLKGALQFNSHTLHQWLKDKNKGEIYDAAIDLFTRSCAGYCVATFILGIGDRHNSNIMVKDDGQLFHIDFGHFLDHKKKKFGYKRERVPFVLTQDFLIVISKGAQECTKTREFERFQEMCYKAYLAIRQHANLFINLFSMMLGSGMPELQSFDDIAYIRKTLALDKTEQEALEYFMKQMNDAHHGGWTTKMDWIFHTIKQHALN

IC50 [nM]	Compound
> 1000	Cc1ccc([N+](=O)[O-])cc1C(=O)NC1CN(Cc2cnn3ccc(C#N)cc23)C1
> 1000	Cc1ccc([N+](=O)[O-])cc1S(=O)(=O)NC1CN(Cc2cnn3ccc(C#N)cc23)C1
1260	Cc1ccc([N+](=O)[O-])cc1S(=O)(=O)Nc1nc(-c2cnn3ccc(Br)cc23)cs1
2130	N#Cc1cc(S(=O)(=O)c2nc(-c3cnn4ccc(Br)cc34)cs2)ccc1NCCN1CCOCC1
740	O=[N+]([O-])c1cccc([S+]([O-])c2nc(-c3cnn4ccc(Br)cc34)cs2)c1 (centres undefined)
> 1000	Cc1ccc([N+](=O)[O-])cc1CSc1nc(-c2cnn3ccc(Br)cc23)cs1
2470	CN(C)CCN(C)c1ccc(S(=O)(=O)c2nc(-c3cnn4ccc(Br)cc34)cs2)cc1C#N
> 1000	Cc1ccc([N+](=O)[O-])cc1S(=O)(=O)N[C@@H]1CCCN(Cc2cnn3ccc(C#N)cc23)C1
> 1000	Cc1ccc([N+](=O)[O-])cc1C(=O)N1CCN(Cc2cnn3ccc(C#N)cc23)CC1
> 1000	Cc1ccc([N+](=O)[O-])cc1S(=O)(=O)N1CCCN(Cc2cnn3ccc(C#N)cc23)CC1
> 1000	Cc1ccc([N+](=O)[O-])cc1Nc1nc(-c2cnn3ccc(Br)cc23)cs1
> 1000	O=[N+]([O-])c1cccc(Sc2nc(-c3cnn4ccc(Br)cc34)cs2)c1
> 1000	Cc1ccc([N+](=O)[O-])cc1C(=O)N[C@H]1CCN(Cc2cnn3ccc(C#N)cc23)C1
> 1000	Cc1ccc([N+](=O)[O-])cc1C(=O)N1CCC(c2cnn3ccc(Br)cc23)CC1
170	N#Cc1cc(S(=O)(=O)c2nc(-c3cnn4ccc(Br)cc34)cs2)ccc1F
240	Cc1ccc([N+](=O)[O-])cc1S(=O)(=O)Cc1nc(-c2cnn3ccc(Br)cc23)cs1
1280	Cc1ccccc1[S+]([O-])c1nc(-c2cnn3ccc(Br)cc23)cs1 (centres undefined)
> 1000	Cc1ccc([N+](=O)[O-])cc1-c1nc(-c2cnn3ccc(Br)cc23)cs1
4030	CN(C)CCN(C)c1ccc(C#N)cc1[S+]([O-])c1nc(-c2cnn3ccc(Br)cc23)cs1 (centres undefined)
630	O=[N+]([O-])c1cccc(S(=O)(=O)c2nc(-c3cnn4ccc(Br)cc34)cs2)c1
